Measurements reported in patent publication US8013187B2, “2-cyclopenten-1-one oxime derivatives inhibiting production of TNF-α” (Amorepacific Corporation, priority 2004, dated 2011).
Converted amounts (≈) assume the structure as drawn.

What was measured:
[1] = molecular target: T1, PDE4D (Homo sapiens, UniProt Q08499); assay: Inhibition of PDE4 isozymes ([3H]cAMP SPA): PDE4D; assay type: biochemical; settings: @ 0.1 μg/ml, pH 7.4 Tris buffer
T1 construct: purchased Fab Gennix International Inc. (Frisco, Tex./USA)
T1 sequence (Q08499 whole entry): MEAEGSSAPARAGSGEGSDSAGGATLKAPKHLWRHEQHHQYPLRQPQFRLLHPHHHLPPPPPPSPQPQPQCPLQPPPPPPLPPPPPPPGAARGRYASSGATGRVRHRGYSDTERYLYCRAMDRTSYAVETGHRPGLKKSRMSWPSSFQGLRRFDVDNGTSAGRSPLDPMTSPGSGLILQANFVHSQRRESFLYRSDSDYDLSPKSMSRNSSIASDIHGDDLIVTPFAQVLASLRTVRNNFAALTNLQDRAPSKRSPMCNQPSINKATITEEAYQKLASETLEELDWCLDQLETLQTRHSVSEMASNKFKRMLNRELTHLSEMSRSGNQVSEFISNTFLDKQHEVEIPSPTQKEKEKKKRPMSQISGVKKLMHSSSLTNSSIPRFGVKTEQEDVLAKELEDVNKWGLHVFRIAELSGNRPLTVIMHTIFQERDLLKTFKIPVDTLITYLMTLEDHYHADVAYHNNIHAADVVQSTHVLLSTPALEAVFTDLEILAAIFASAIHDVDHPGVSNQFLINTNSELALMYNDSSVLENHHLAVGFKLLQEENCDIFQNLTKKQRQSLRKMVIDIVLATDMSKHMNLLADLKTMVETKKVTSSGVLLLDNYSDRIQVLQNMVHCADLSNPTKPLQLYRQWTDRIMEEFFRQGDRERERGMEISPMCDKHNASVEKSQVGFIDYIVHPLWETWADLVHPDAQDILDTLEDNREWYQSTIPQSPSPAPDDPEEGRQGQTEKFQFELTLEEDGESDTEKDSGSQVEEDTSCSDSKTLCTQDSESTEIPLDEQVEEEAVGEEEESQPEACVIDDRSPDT
Method: (§1) Inhibition of PDE4 Isozymes: Compounds of the instant invention were evaluated for their ability to inhibit isozymes of phosphodiesterase 4 (PDE4) obtained from Fab Gennix International Inc. (Frisco, Tex./USA) according to a literature method. […] In brief, a compound at a designated dose was assayed for their ability to inhibit the hydrolysis of cAMP by a PDE4 isozyme in pH 7.4 Tris buffer. The resulting level of cAMP was determined by the scintillation proximity assay (SPA) using a SPA kit from Amersham Biosciences according to the supplier's instruction manual (TRKQ7090 Phosphodiesterase [^3H]cAMP SPA enzyme assay).

[2] = molecular target: T2, PDE4A (Homo sapiens, UniProt P27815); assay: Inhibition of PDE4 isozymes ([3H]cAMP SPA): PDE4A; assay type: biochemical; settings: @ 0.5 μg/ml, pH 7.4 Tris buffer
T2 construct: purchased Fab Gennix International Inc. (Frisco, Tex./USA)
T2 sequence (P27815 whole entry): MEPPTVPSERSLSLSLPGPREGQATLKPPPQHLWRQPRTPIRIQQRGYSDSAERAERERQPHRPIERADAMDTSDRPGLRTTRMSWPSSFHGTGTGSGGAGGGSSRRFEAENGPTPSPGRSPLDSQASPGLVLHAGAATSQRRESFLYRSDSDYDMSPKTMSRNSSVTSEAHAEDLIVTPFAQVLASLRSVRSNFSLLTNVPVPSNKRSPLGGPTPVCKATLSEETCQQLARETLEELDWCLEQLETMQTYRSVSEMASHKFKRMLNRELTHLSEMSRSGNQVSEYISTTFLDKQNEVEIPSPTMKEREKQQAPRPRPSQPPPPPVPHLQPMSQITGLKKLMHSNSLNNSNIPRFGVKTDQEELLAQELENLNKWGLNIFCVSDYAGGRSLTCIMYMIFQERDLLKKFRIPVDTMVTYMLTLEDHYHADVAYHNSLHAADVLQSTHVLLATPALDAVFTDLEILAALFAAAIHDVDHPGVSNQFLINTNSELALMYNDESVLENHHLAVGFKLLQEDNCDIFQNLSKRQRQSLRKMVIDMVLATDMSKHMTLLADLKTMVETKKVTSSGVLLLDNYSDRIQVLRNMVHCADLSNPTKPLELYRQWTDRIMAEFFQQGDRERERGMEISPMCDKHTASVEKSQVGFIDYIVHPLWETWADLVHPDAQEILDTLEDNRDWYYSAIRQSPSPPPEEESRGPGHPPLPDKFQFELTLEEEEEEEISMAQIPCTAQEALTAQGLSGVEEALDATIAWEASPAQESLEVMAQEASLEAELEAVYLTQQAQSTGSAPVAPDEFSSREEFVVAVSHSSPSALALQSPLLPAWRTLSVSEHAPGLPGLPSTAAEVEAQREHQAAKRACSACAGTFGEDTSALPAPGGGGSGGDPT
Method: as §1

[3] = system: production of TNF-α in rat PBMCs; assay: Inhibition of TNF-α production in rat PBMCs (LPS/IFN-γ stimulated, ELISA); assay type: cell-based; settings: PBMC; for IC50: rat PBMCs, LPS + IFN-γ, 18 hours
Method: (§2) Compounds of this invention were evaluated for their ability to inhibit the production of TNF-α in stimulated immune cells. […] Compounds of the present invention were evaluated for their therapeutic activity in animal models for inflammatory or immunological disorders. Also compounds of this invention were assayed for their ability to inhibit PDE4 isozymes.
Inhibition of TNF-α Production in Rat PBMCs: Compounds of the present invention were evaluated for their ability to inhibit the production of TNF-α in rat peripheral blood mononuclear cells (PBMCs) as described in the literature. [Exp. Geront. vol 37, 235-247 (2002)] In brief, 6 ml rat blood drawn from the abdominal vein as treated with ACD (acid/citrate/dextrose) was carefully added in a tube containing 6 ml Ficoll 1077, and the tube was centrifuged for 30 min at 1500 rpm (415 G) at room temperature. The cell fraction (middle fraction) was suspended in a 50 ml tube containing phosphate buffered saline (PBS). The tube was centrifuged for 5 min at 2000 rpm (737 G). The resulting pellet was suspended in 6 ml PBS and 6 ml Ficoll 1077, and centrifuged for 30 min at 1500 rpm (415 G) at room temperature to remove remaining plasma. The cell fraction was suspended in PBS and centrifuged for 5 min at 2000 rpm. Such a washing was repeated twice. Then the collected cells were suspended in 10 ml RPMI-1640 containing 10% FBS and further diluted to contain 4×10^6 cells per ml. The cell suspension was dispensed into a 96-well plate at 100 μl per well, which was pre-supplemented with 1 μl of either DMSO (placebo) or a DMSO stock solution containing a designated concentration of a compound of this invention. The plate was cultured for an hour at 37° C. under 5% CO2 and 95% O2. To each well, was added 100 μl RPMI-1640 containing 0.1 μg/ml LPS, 5 U/ml IFN-γ, and 10% FBS. Then the plate was subjected to a culture for 18 hours at 37° C. under 5% CO2 and 95% O2. An aliquot of the supernatant from each well was subjected to an ELISA assay to determine the TNF-α level in the well.

[4] = system: production of TNF-α in human PBMCs; assay: Inhibition of TNF-α production in human PBMCs (ELISA); assay type: cell-based; settings: PBMC
Method: as §2
Inhibition of TNF-α Production in Human PBMCs: Compounds of the present invention were evaluated for their ability to inhibit the production of TNF-α in human PBMCs as described in the literature. [J. Med. Chem. vol 39, 3238-3240 (1996)] Blood was freshly drawn from healthy human subjects as treated with ACD to isolate human PBMCs according to the procedure employed for rat PBMCs. The employed assay method for the ELISA against human TNF-α was essentially identical to that for the rat TNF-α ELISA assay.

[5] = system: production of TNF-α in mice stimulated with LPS; assay: In vivo inhibition of TNF-α production in mice stimulated with LPS; settings: Mus musculus, 2 h, LPS i.p., plasma at hour 2, read-out: % Inhibition of in vivo TNF-α production @ dose; for inhibition in vivo at 3 mg/kg: 3 mg/kg oral gavage; for inhibition in vivo at 0.3 mg/kg: 0.3 mg/kg oral gavage
Method: [J. Pharmacol. Exp. Therapeut. vol 279, 1453-1461 (1996)] In brief, either a compound of the instant invention with vehicle or vehicle only (5% Tween 80) was administered by oral gavage (10 ml/kg body weight) at hour 0 to mice (Balb/C or ICR, 25˜30 g) fasted overnight. The mice were subjected to a peritoneal injection with […] LPS per mouse at hour 0.5, and blood was drawn from the abdominal vein at hour 2 following euthanasia with CO2. Then plasma separated from the drawn blood by centrifugation was subjected to an ELISA assay to measure the level of TNF-α.

[6] = system: cAMP degradation in U937 cells; assay: In vitro inhibition of cAMP degradation in U937 cells (forskolin, cAMP EIA); assay type: cell-based; settings: Homo sapiens, U-937, 10 μM forskolin
Method: In vitro Inhibition of cAMP Degradation in U937 Cells: Compounds of this invention were evaluated for their ability to inhibit in cells the hydrolysis of cAMP induced by forskolin, an adenylate cyclase stimulator. In brief, 3×10^5 U937 cells per well on a 96-well plate were incubated for 10 min at 37° C. in 200 μl RPMI-1640 containing 10% FBS, which was followed by treatment of either DMSO or a DMSO stock solution of a compound of the present invention at a designated dose. Then the cells were stimulated with 10 μM forskolin for 10 min at 37° C. The plate was centrifuged for 5 min at 1500 rpm. 120 μl of the supernatant was carefully removed from each well and 200 μl of lysis agent 1B was added to the well. Then the cell lysate was assayed to determine the level of cAMP by enzyme immunoassay (EIA) using a cAMP EIA kit from Amersham Pharmacia Biotech (Kit #RPN225). IC50's were determined for compounds of this invention from dose response curves for cAMP levels.

[7] = system: colitis induced by dextran sulfate sodium (DSS) in Balb/c mice; assay: DSS-induced colitis in mice; assay type: in vivo; settings: 50 mg/kg BID oral, day 11, p>0.05
Method: Therapeutic Effect in DSS-induced Colitis: Compounds of the present invention were evaluated for their ability to treat colitis induced by dextran sulfate sodium (DSS) in mice according to the literature. […] In brief, female Balb/c mice weighing 16-20 g were randomized into groups (5˜6 per group) and were allowed from day 1 free access to water containing 5% DSS. A compound of this invention or sulfasalazine in 5% Tween 80 at 10 ml/kg was orally administered twice a day. Clinical activity score of each animal was measured on a daily basis by evaluating the stool consistency, body weight and rectal bleeding.

Row | Compound | IC50 [3] | melting point | inhibition in vivo at 3 mg/kg [5] | also measured
1 | ON=C1CCC(C2CCCC2)=C1c1ccc(F)c(Cl)c1 [Example 3, 2-(3-chloro-4-fluorophenyl)-3-cyclopentyl-2-cyclopenten-1-one oxime] | 0.053 µg/mL | 143 to 144 °C | – | inhibition at 0.1 µg/mL [1]: 78%; inhibition at 0.5 µg/mL [2]: 89%
2 | CCCCC1=C(c2ccc3c(c2)OCO3)C(=NO)CC1 [Example 45, 3-butyl-2-(3,4-methylenedioxyphenyl)-2-cyclopenten-1-one oxime] | 0.69 µg/mL | 116 to 120 °C | – | IC50 [4]: 0.8 µg/mL (≈ 2.93 µM); inhibition in vivo at 1 mg/kg ([5]; 1 mg/kg oral gavage): 42%; IC50 [6]: 0.87 µg/mL (≈ 3.18 µM)
3 | O=C(O)c1cc(/N=N/c2ccc(S(=O)(=O)Nc3ccccn3)cc2)ccc1O [sulfasalazine] | – | – | – | improvement in the clinical score activity from the control group [7]: 19%
4 | ON=C1CCC(C2CCCCC2)=C1c1ccc(F)c(Cl)c1 [Example 28, 2-(3-chloro-4-fluorophenyl)-3-cyclohexyl-2-cyclopenten-1-one oxime] | 0.13 µg/mL | 158 to 160 °C | 88% | inhibition at 0.1 µg/mL [1]: 87%; inhibition at 0.5 µg/mL [2]: 58%
5 | COc1cccc(C2=C(C3CCCCC3)CCC2=NO)c1 [Example 32, 3-cyclohexyl-2-(3-methoxyphenyl)-2-cyclopenten-1-one oxime] | 0.49 µg/mL | 149 to 150 °C | 92% | –
6 | ON=C1CCC(C2CCCC2)=C1c1ccc(F)c(F)c1 [Example 2, 3-cyclopentyl-2-(3,4-difluorophenyl)-2-cyclopenten-1-one oxime] | 0.035 µg/mL | 173 to 174 °C | – | IC50 [4]: 0.072 µg/mL (≈ 0.26 µM); inhibition in vivo at 0.3 mg/kg [5]: 78%; IC50 [6]: 0.1 µg/mL (≈ 0.361 µM)
7 | CCCCCC1=C(c2ccc(F)cc2)C(=NO)CC1 [Example 65, 2-(4-fluorophenyl)-3-pentyl-2-cyclopenten-1-one oxime] | ~1 µg/mL | 101 to 102 °C | – | IC50 [4]: 1.2 µg/mL (≈ 4.59 µM)
8 | CCCC1=C(c2ccc(F)c(F)c2)C(=NO)CC1 [Example 79, 2-(3,4-difluorophenyl)-3-propyl-2-cyclopenten-1-one oxime] | 0.18 µg/mL | 136 to 137 °C | 85% | inhibition at 0.1 µg/mL [1]: 23%; inhibition at 0.5 µg/mL [2]: 0%
9 | ON=C1CCC(C2CCCC2)=C1c1ccc2c(c1)OCO2 [Example 10, 3-cyclopentyl-2-(3,4-methylenedioxyphenyl)-2-cyclopenten-1-one oxime] | 0.097 µg/mL | 186 to 188 °C | – | inhibition at 0.1 µg/mL [1]: 38%; inhibition at 0.5 µg/mL [2]: 33%
10 | CCCC1=C(c2cccc([N+](=O)[O-])c2)C(=NO)CC1 [Example 80, 2-(3-nitrophenyl)-3-propyl-2-cyclopenten-1-one oxime] | 0.2 µg/mL | – | 95% | –
11 | CC(C)CC1=C(c2ccc(F)c(F)c2)C(=NO)CC1 [Example 86, 2-(3,4-difluorophenyl)-3-isobutyl-2-cyclopenten-1-one oxime] | 0.27 µg/mL | 136 to 139 °C | – | –
12 | ON=C1CCC(C2CCCCC2)=C1c1ccc(F)cc1 [Example 27, 3-cyclohexyl-2-(4-fluorophenyl)-2-cyclopenten-1-one oxime] | 0.34 µg/mL | 173 to 176 °C | 87% | –
13 | COc1ccc(C2CNC(=O)C2)cc1OC1CCCC1 (stereo not drawn) [Rolipram, rolipram, reference compound] | 0.05 to 0.1 µg/mL | – | – | IC50 [4]: 0.01 to 0.1 µg/mL (≈ 0.0363 to 0.363 µM); inhibition in vivo at 0.2 mg/kg ([5]; 0.2 mg/kg oral gavage): ~50%; IC50 [6]: 0.27 µg/mL (≈ 0.981 µM)
14 | CCCCCC1=C(c2ccccc2)C(=NO)CC1 [Example 66, 3-pentyl-2-phenyl-2-cyclopenten-1-one oxime] | 1 to 3 µg/mL | 110 to 111 °C | 45% | –
15 | CC1=C(c2ccc(F)cc2)C(=NO)CC1 [Example 83, 2-(4-fluorophenyl)-3-methyl-2-cyclopenten-1-one oxime] | ~10 µg/mL | 170 to 171 °C | – | –
16 | ON=C1CCC(C2CCCC2)=C1c1ccc(F)cc1 [Example 1, 3-cyclopentyl-2-(4-fluorophenyl)-2-cyclopenten-1-one oxime] | 0.12 µg/mL | 204 to 205 °C | 72% | inhibition at 0.1 µg/mL [1]: 79%; inhibition at 0.5 µg/mL [2]: 72%
17 | C=Cc1ccc(C2=C(C3CCCC3)CCC2=NO)cc1 [Example 18, 3-cyclopentyl-2-(4-vinylphenyl)-2-cyclopenten-1-one oxime] | – | 177 to 179 °C | – | inhibition at 3 µg/mL ([3]; Rattus norvegicus, @ 3 μg/ml): 78%
18 | N#Cc1cc(C2=C(C3CCCC3)CCC2=NO)ccc1F [Example 13, 2-(3-cyano-4-fluorophenyl)-3-cyclopentyl-2-cyclopenten-1-one oxime] | 0.4 µg/mL | 167 to 168 °C | – | inhibition in vivo at 0.3 mg/kg [5]: 70%
19 | CCCCCC1=C(c2ccsc2)C(=NO)CC1 [Example 77, 3-pentyl-2-(3-thienyl)-2-cyclopenten-1-one oxime] | 2.8 µg/mL | 105 to 106 °C | – | –
20 | N#Cc1cccc(C2=C(C3CCCC3)CCC2=NO)c1 [Example 12, 2-(3-cyanophenyl)-3-cyclopentyl-2-cyclopenten-1-one oxime] | 0.1 µg/mL | 180 to 182 °C | – | IC50 [4]: 0.16 µg/mL (≈ 0.601 µM)
